In patent US10344019B2 (priority 2010, dated 2019) one finds EC50 data, which are given here for 7 molecules.

Common to all, as to format: cell-based
Assay [1] concerns HCV 2a Rluc cells (NS5A chimeric genotype 2a JFH-1 replicon with genotype 2a J6 strain NS5A gene, M31 present). The assay can be described thus: HCV replicon reporter assay, genotype 2a J6 (M31 present). The note with it: Hepatitis C virus, read-out: 2a J6. A digest of the protocol:
(§1)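 Replicons used: genotype 1b Con1, 1a H77, 2a JFH-1, and a 2a JFH-1 chimera with J6-strain NS5A (M31 present), all dicistronic.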
Background: A replicon is a self-replicating genome or part of one, used to study replication in cells.

For assay [2], the system named is Q30R in genotype 1a NS5A, 1a Rluc replicon transfected into Huh-7 cured-51 cells. The experiment in a line: HCV replicon assay, resistance mutant 1a Q30R. The note with it: Hepatitis C virus, Huh-7, read-out: 1a Q30R. Summed up:
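Cells were Huh-7 cured-51 transfected with replicon RNA of a genotype 1a H77 RLuc replicon carrying site-directed Q30R in NS5A.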

Assay [3] relates to HCV 3a RLuc cells (NS5A chimeric genotype 1b Con1 replicon with consensus genotype 3a NS5A gene). The experiment in a line: microbe, parasite or virus in culture. The note with it: Hepatitis C virus. A digest of the protocol:
(§2)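 Replicon cells stably carrying the listed RLuc-encoding dicistronic replicons were seeded and treated with DMSO serial dilutions of compound (10 mM stocks) diluted into culture medium. After 72 h, cells were lysed and Renilla luciferase activity measured. EC50 was derived by non-linear regression.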

The test system of assay [4] is HCV 2b Rluc cells (NS5A chimeric genotype 2a JFH-1 replicon with genotype 2b MD2b-1 NS5A gene, M31 present). The experiment in a line: microbe, parasite or virus in culture. The note with it: Hepatitis C virus, read-out: 2b. Summed up: as §2
Assay [5] has as its system HCV 1b RLuc cells (dicistronic genotype 1b Con1 replicon, RLuc reporter). The experiment in a line: microbe, parasite or virus in culture. The note with it: Hepatitis C virus, read-out: 1b (nM). A digest of the protocol:
as §1

Assay [6] has as its system HCV 4a Rluc cells (NS5A chimeric genotype 1b Con1 replicon with genotype 4a NS5A gene). The assay can be described thus: microbe, parasite or virus in culture. The note with it: Hepatitis C virus, read-out: 4a. Summed up: as §2
The subject of assay [7] is HCV 1a RLuc cells (dicistronic genotype 1a H77 replicon, RLuc reporter). The experiment in a line: microbe, parasite or virus in culture. The note with it: Hepatitis C virus, read-out: 1a. Summed up: as §1
Assay [8] has as its system HCV 2a JFH-1 Rluc cells (dicistronic genotype 2a JFH-1 replicon, RLuc reporter). The experiment in a line: microbe, parasite or virus in culture. The note with it: Hepatitis C virus, read-out: 2a JFH. A digest of the protocol: as §1
Setting [9] is: read-out: 3a, genotype 3a NS5A chimeric replicon.
Where [10] appears, read: genotype 2a JFH-1 RLuc replicon.

Molecules are shown by their SMILES. Read-outs that look alike come from different tables or passages of the source.

Consider `COC(=O)N[C@H](C(=O)N1C[C@@H](C)C[C@H]1c1nc2ccc3cc4c(cc3c2[nH]1)OCc1cc(-c2cnc([C@@H]3CCCN3C(=O)[C@H](NC(=O)OC)c3ccccc3)[nH]2)ccc1-4)C(C)C` [Example 565], for which the EC50 in assay [1] is 0.001 to 0.999 nM; in assay [2] it was 0.001 to 0.999 nM; in assay [3] (setting [9]), 0.001 to 0.99 nM; in assay [4] it was 0.001 to 0.999 nM; in assay [5], 0.017 nM; in assay [6], 0.001 to 0.99 nM. Also, the EC50 in assay [7] (genotype 1a H77 RLuc replicon) and in assay [8] (setting [10]) was 0.001 to 0.999 nM in each case.
Take `COC(=O)N[C@H](C(=O)N1[C@@H](C)CC[C@H]1c1ncc(-c2ccc3c(c2)COc2cc4c(ccc5nc([C@@H]6CC[C@H](C)N6C(=O)[C@@H](NC(=O)OC)C(C)C)[nH]c54)cc2-3)[nH]1)C(C)C` [Example 585]: the EC50 in assay [1] is 0.001 to 0.999 nM; in assay [2], 0.001 to 0.999 nM; in assay [3] (setting [9]), 0.001 to 0.99 nM; in assay [4] it was 0.001 to 0.999 nM; in assay [5], 0.009 nM; in assay [6] it was 0.001 to 0.99 nM. The EC50 in assay [7] (genotype 1a H77 RLuc replicon) and in assay [8] (setting [10]) was 0.001 to 0.999 nM each time.
Turning to `COC(=O)N[C@H](C(=O)N1C[C@@H](C)C[C@H]1c1nc2ccc3cc4c(cc3c2[nH]1)OCc1cc(-c2cnc([C@@H]3CC[C@H](C)N3C(=O)[C@@H](NC(=O)OC)C(C)C)[nH]2)ccc1-4)C(C)C` [Example 566], the EC50 in assay [1] was 0.001 to 0.999 nM; in assay [2] it was 0.001 to 0.999 nM; in assay [3] (setting [9]) it was 0.001 to 0.99 nM; in assay [4] it was 0.001 to 0.999 nM; in assay [5], 0.009 nM; in assay [6] it was 0.001 to 0.99 nM. The EC50 in assay [7] (genotype 1a H77 RLuc replicon) and in assay [8] (setting [10]) was 0.001 to 0.999 nM in each case.
On to `COC[C@H]1C[C@@H](c2nc3ccc4cc(-c5ccc6c(ccc7nc([C@@H]8C[C@H](C)CN8C(=O)[C@@H](NC(=O)OC)C(C)C)[nH]c76)c5)ccc4c3[nH]2)N(C(=O)[C@@H](NC(=O)OC)C(C)C)C1` [Example 568], for which the EC50 is 0.001 to 0.999 nM in assay [1]; 0.001 to 0.999 nM in assay [2]; 0.001 to 0.99 nM in assay [3] (setting [9]); 0.001 to 0.999 nM in assay [4]; 0.021 nM in assay [5]; 0.001 to 0.99 nM in assay [6]. For the same molecule, the EC50 in assay [7] (genotype 1a H77 RLuc replicon) and in assay [8] (setting [10]) was 0.001 to 0.999 nM each time.
As for `COC[C@H]1C[C@@H](c2nc3ccc4cc(-c5ccc6c(ccc7nc([C@@H]8C[C@H](C)CN8C(=O)[C@@H](NC(=O)OC)C(C)C)[nH]c76)c5)ccc4c3[nH]2)N(C(=O)[C@H](N)c2ccccc2)C1` [Example 545], the EC50 in assay [1] was 0.001 to 0.999 nM; in assay [2], 0.001 to 0.999 nM; in assay [3] (setting [9]), 0.001 to 0.99 nM; in assay [4], 0.001 to 0.999 nM; in assay [5], 0.075 nM; in assay [6] it was 0.001 to 0.99 nM. Further, the EC50 in assay [7] (genotype 1a H77 RLuc replicon) and in assay [8] (setting [10]) was 0.001 to 0.999 nM throughout.
As for `CCO[C@H]1C[C@@H](c2nc3ccc4cc5c(cc4c3[nH]2)OCc2cc(-c3cnc([C@@H]4CCCN4C(=O)[C@H](NC(=O)OC)c4ccccc4)[nH]3)ccc2-5)N(C(=O)[C@@H](NC(=O)OC)C(C)C)C1` [Example 552], the EC50 in assay [1] is 0.001 to 0.999 nM; in assay [2], 0.001 to 0.999 nM; in assay [3] (setting [9]), 0.001 to 0.99 nM; in assay [4], 0.001 to 0.999 nM; in assay [5], 0.033 nM; in assay [6], 0.001 to 0.99 nM. The EC50 in assay [7] (genotype 1a H77 RLuc replicon) and in assay [8] (setting [10]) was 0.001 to 0.999 nM throughout.
As for `COC(=O)N[C@@H](C(=O)N1CCC[C@H]1c1ncc(-c2cc3c4c(c2)OCc2cc(-c5cnc([C@@H]6CCCN6C(=O)[C@H](NC(=O)OC)c6ccccc6)[nH]5)cc(c2-4)OC3)[nH]1)c1ccccc1` [Example 25d], the EC50 was 0.001 to 0.999 nM in assay [1]; 0.001 to 0.999 nM in assay [2]; 0.001 to 0.99 nM in assay [3] (read-out: 3a, Table 1, genotype 3a NS5A chimeric replicon); 0.001 to 0.999 nM in assay [4]; 0.048 nM in assay [5] (72 h); 0.001 to 0.99 nM in assay [6]. Further, the EC50 in assay [7] (72 h, Table 1, genotype 1a H77 replicon, 72 hours) lay in the range of 0.001 to 0.999 nM; in assay [8] (72 h, Table 1, genotype 2a JFH-1 replicon, 72 hours), 0.001 to 0.999 nM.
